Data from PMC9250238 (BMC Complementary Medicine and Therapies, 2022).

biological target: T1, α-glucosidase (Saccharomyces cerevisiae) (Saccharomyces cerevisiae, UniProt P53341); assay: not given; details: read-out: IC50 against α-glucosidase; in vitro, pNPG substrate, 37 °C, pH 6.8
T1 sequence (P53341 whole entry): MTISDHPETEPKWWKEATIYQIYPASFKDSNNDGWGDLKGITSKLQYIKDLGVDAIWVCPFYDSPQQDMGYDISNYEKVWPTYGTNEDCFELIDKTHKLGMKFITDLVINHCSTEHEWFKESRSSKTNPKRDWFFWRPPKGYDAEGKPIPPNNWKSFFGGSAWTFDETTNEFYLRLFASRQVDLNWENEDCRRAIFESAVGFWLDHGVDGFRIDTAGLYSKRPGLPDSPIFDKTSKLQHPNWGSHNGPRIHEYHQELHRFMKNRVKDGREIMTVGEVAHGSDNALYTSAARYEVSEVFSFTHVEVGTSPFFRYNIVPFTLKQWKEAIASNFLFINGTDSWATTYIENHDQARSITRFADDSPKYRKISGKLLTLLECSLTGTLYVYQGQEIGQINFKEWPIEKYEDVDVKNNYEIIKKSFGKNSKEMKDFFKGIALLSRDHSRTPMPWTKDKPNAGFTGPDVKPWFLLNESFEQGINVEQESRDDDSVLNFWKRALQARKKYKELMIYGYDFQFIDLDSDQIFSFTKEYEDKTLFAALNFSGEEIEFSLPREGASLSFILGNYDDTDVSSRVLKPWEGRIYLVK

Molecule | IC50 [µM]
(2S)-4′-hydroxy-5,7-dimethoxy-8-methylflavan [Compound 6] | 370 ± 20

biological target: T1, α-glucosidase (Saccharomyces cerevisiae); assay: biochemical; details: not given

Molecule | IC50 [µM]
Cc1c(Cl)c(O)cc(O)c1Cl [Compound 24, 4,6-dichloro-5-methyl-benzene-1,3-diol] | 780 ± 30
O=C(/C=C/c1ccc(O)cc1)NCCc1ccc(O)cc1 [Compound 18, trans-N-p-coumaroyltyramine] | 1.99 ± 0.2
CCO[C@@H](c1ccc(O)c(OC)c1)[C@H](O)CO [Compound 22, erythro-7R,8S-7-O-ethylguaiacyl glycerol] | 40 ± 4
Cc1c(O)cc2c(c1O)C(=O)C(Cc1ccc(O)cc1)CO2 (centres unmarked) [Compound 8, 5,7-dihydroxy-6-methyl-3-(4′-hydroxybenzyl) chroman-4-one] | 520 ± 10
COc1cc(O)c2c(c1C)O[C@H](c1ccc(O)cc1)CC2 [Compound 5, (2S)-4′,5-Dihydroxy-7-methoxy-8-methylflavan] | 240 ± 30
O=c1c(Cc2ccc(O)cc2)coc2cc(O)cc(O)c12 [Compound 9, 5,7-dihydroxy-3-(4′-hydroxybenzyl) chromone] | 650 ± 10

biological target: T1, α-glucosidase (Saccharomyces cerevisiae); assay: Combined inhibition of acarbose and selected compounds against α-glucosidase (CompuSyn CI); format: biochemical; set-up: purchased Sigma–Aldrich; details: CI >1.1 antagonistic, 0.9-1.1 additive, <0.9 synergistic
Text: (§1) A combination index (CI) was employed to evaluate the impacts of binary inhibitors on α-glucosidase and α-amylase. […] When the CI values were above 1.1, between 0.9 and 1.1, and below 0.9, the effects were defined as antagonistic, additive, and synergistic.

Molecule | Type of interaction with acarbose against α-glucosidase
Cc1c(Cl)c(O)cc(O)c1Cl [Compound 24, 4,6-dichloro-5-methyl-benzene-1,3-diol] | moderate additive effects
CCO[C@@H](c1ccc(O)c(OC)c1)[C@H](O)CO [Compound 22, erythro-7R,8S-7-O-ethylguaiacyl glycerol] | synergism
Cc1c(O)cc2c(c1O)C(=O)C(Cc1ccc(O)cc1)CO2 (centres unmarked) [Compound 8, 5,7-dihydroxy-6-methyl-3-(4′-hydroxybenzyl) chroman-4-one] | synergism
O=c1c(Cc2ccc(O)cc2)coc2cc(O)cc(O)c12 [Compound 9, 5,7-dihydroxy-3-(4′-hydroxybenzyl) chromone] | synergism
(2S)-4′-hydroxy-5,7-dimethoxy-8-methylflavan [Compound 6] | slight antagonism

same assay, conditions: combination with acarbose, over tested concentrations

Molecule | CI values against α-glucosidase
CCO[C@@H](c1ccc(O)c(OC)c1)[C@H](O)CO [Compound 22, erythro-7R,8S-7-O-ethylguaiacyl glycerol] | below 0.9
Cc1c(O)cc2c(c1O)C(=O)C(Cc1ccc(O)cc1)CO2 (centres unmarked) [Compound 8, 5,7-dihydroxy-6-methyl-3-(4′-hydroxybenzyl) chroman-4-one] | below 0.9
O=c1c(Cc2ccc(O)cc2)coc2cc(O)cc(O)c12 [Compound 9, 5,7-dihydroxy-3-(4′-hydroxybenzyl) chromone] | below 0.9

same assay, conditions: highest concentration pair (about IC50); acarbose 5 mM; No.6/No.8 0.5 mM, No.9/No.24 1 mM, No.22 50 μM

Molecule | CI (combination index) against α-glucosidase
(2S)-4′-hydroxy-5,7-dimethoxy-8-methylflavan [Compound 6] | 1.12

biological target: T2, α-amylase (porcine pancreas) (Sus scrofa, UniProt P00690); assay: α-Amylase inhibition assay (starch-iodine); details: not given
T2 sequence (P00690 16-511): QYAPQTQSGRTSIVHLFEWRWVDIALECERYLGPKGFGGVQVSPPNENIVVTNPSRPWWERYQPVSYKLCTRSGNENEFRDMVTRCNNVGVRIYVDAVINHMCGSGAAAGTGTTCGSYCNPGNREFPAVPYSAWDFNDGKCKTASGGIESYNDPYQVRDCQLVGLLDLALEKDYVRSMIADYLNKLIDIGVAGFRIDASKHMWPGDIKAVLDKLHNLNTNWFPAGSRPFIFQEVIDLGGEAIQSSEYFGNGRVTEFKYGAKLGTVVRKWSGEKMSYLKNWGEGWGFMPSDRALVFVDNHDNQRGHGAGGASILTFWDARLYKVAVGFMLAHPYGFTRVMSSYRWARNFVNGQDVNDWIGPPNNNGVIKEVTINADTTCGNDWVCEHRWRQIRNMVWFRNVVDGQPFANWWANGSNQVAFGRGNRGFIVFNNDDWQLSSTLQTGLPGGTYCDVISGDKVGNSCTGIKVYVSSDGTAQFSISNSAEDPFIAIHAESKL

Molecule | IC50 [µM]
Cc1c(O)cc2c(c1O)C(=O)C(Cc1ccc(O)cc1)CO2 (centres unmarked) [Compound 8, 5,7-dihydroxy-6-methyl-3-(4′-hydroxybenzyl) chroman-4-one] | 5990 ± 60
O=c1c(Cc2ccc(O)cc2)coc2cc(O)cc(O)c12 [Compound 9, 5,7-dihydroxy-3-(4′-hydroxybenzyl) chromone] | 2590 ± 50

same assay, conditions: in the test concentration range

Molecule | IC50 against α-amylase (result in words)
Cc1c(Cl)c(O)cc(O)c1Cl [Compound 24, 4,6-dichloro-5-methyl-benzene-1,3-diol] | did not yield 50% inhibition
CCO[C@@H](c1ccc(O)c(OC)c1)[C@H](O)CO [Compound 22, erythro-7R,8S-7-O-ethylguaiacyl glycerol] | did not yield 50% inhibition

same assay, conditions: read-out: IC50 against α-amylase; in vitro, starch-iodine method, 37 °C

Molecule | IC50 [µM]
(2S)-4′-hydroxy-5,7-dimethoxy-8-methylflavan [Compound 6] | 6030 ± 270

biological target: T1, α-glucosidase (Saccharomyces cerevisiae); assay: Kinetic test for α-glucosidase (Lineweaver–Burk); details: not given

Molecule | Ki [µM]
Cc1c(Cl)c(O)cc(O)c1Cl [Compound 24, 4,6-dichloro-5-methyl-benzene-1,3-diol] | 44 ± 0.88
O=C(/C=C/c1ccc(O)cc1)NCCc1ccc(O)cc1 [Compound 18, trans-N-p-coumaroyltyramine] | 21.1 ± 12.2
CCO[C@@H](c1ccc(O)c(OC)c1)[C@H](O)CO [Compound 22, erythro-7R,8S-7-O-ethylguaiacyl glycerol] | 7 ± 1.97
Cc1c(O)cc2c(c1O)C(=O)C(Cc1ccc(O)cc1)CO2 (centres unmarked) [Compound 8, 5,7-dihydroxy-6-methyl-3-(4′-hydroxybenzyl) chroman-4-one] | 11.2 ± 0.99
COc1cc(O)c2c(c1C)O[C@H](c1ccc(O)cc1)CC2 [Compound 5, (2S)-4′,5-Dihydroxy-7-methoxy-8-methylflavan] | 39.9 ± 8.47
O=c1c(Cc2ccc(O)cc2)coc2cc(O)cc(O)c12 [Compound 9, 5,7-dihydroxy-3-(4′-hydroxybenzyl) chromone] | 54.4 ± 15.8

same assay, conditions: Lineweaver–Burk plots

Molecule | Mode of inhibition (α-glucosidase)
Cc1c(Cl)c(O)cc(O)c1Cl [Compound 24, 4,6-dichloro-5-methyl-benzene-1,3-diol] | Mixed
O=C(/C=C/c1ccc(O)cc1)NCCc1ccc(O)cc1 [Compound 18, trans-N-p-coumaroyltyramine] | Uncompetitive
CCO[C@@H](c1ccc(O)c(OC)c1)[C@H](O)CO [Compound 22, erythro-7R,8S-7-O-ethylguaiacyl glycerol] | Mixed
Cc1c(O)cc2c(c1O)C(=O)C(Cc1ccc(O)cc1)CO2 (centres unmarked) [Compound 8, 5,7-dihydroxy-6-methyl-3-(4′-hydroxybenzyl) chroman-4-one] | Competitive
COc1cc(O)c2c(c1C)O[C@H](c1ccc(O)cc1)CC2 [Compound 5, (2S)-4′,5-Dihydroxy-7-methoxy-8-methylflavan] | noncompetitive inhibitor
O=c1c(Cc2ccc(O)cc2)coc2cc(O)cc(O)c12 [Compound 9, 5,7-dihydroxy-3-(4′-hydroxybenzyl) chromone] | Mixed
(2S)-4′-hydroxy-5,7-dimethoxy-8-methylflavan [Compound 6] | Mixed

same assay, conditions: read-out: Ki (α-glucosidase); Lineweaver–Burk plots

Molecule | Ki [µM]
(2S)-4′-hydroxy-5,7-dimethoxy-8-methylflavan [Compound 6] | 57.8 ± 1.67

biological target: T2, α-amylase (porcine pancreas); assay: Kinetic test for α-amylase (Lineweaver–Burk); format: biochemical; set-up: purchased Sigma–Aldrich; host or cells: porcine pancreas; details: Lineweaver–Burk plots
Description: (§2) Changes in α-amylase activities were quantitatively analysed via a method based on starch-iodine colorimetric detection. […] A mixture of 40 μL of starch solution and 40 μL of selected compounds was maintained at 37 °C for 10 min, and 80 μL α-amylase (5 U/mL) was added to start the reaction. After 30 min at 37 °C, terminations were achieved using 40 μL of 1 M HCl.

Molecule | Ki [µM] | Mode of inhibition (α-amylase)
Cc1c(O)cc2c(c1O)C(=O)C(Cc1ccc(O)cc1)CO2 (centres unmarked) [Compound 8, 5,7-dihydroxy-6-methyl-3-(4′-hydroxybenzyl) chroman-4-one] | 14100 ± 3530 | Mixed
O=c1c(Cc2ccc(O)cc2)coc2cc(O)cc(O)c12 [Compound 9, 5,7-dihydroxy-3-(4′-hydroxybenzyl) chromone] | 8590 ± 1940 | Mixed
(2S)-4′-hydroxy-5,7-dimethoxy-8-methylflavan [Compound 6] | 27500 ± 3510 | Mixed

biological target: T2, α-amylase (porcine pancreas); assay: Combined inhibition of acarbose and selected flavonoids against α-amylase (CompuSyn CI); format: biochemical; set-up: purchased Sigma–Aldrich; host or cells: porcine pancreas; details: CI >1.1 antagonistic, 0.9-1.1 additive, <0.9 synergistic
Description: as §2, §1

Molecule | Type of interaction with acarbose against α-amylase
Cc1c(O)cc2c(c1O)C(=O)C(Cc1ccc(O)cc1)CO2 (centres unmarked) [Compound 8, 5,7-dihydroxy-6-methyl-3-(4′-hydroxybenzyl) chroman-4-one] | additive effects
O=c1c(Cc2ccc(O)cc2)coc2cc(O)cc(O)c12 [Compound 9, 5,7-dihydroxy-3-(4′-hydroxybenzyl) chromone] | additive effects
(2S)-4′-hydroxy-5,7-dimethoxy-8-methylflavan [Compound 6] | additive effects
